Measured values reported in US20150005237A1, “PEPTIDIC INHIBITOR OF SIGNAL TRANSMISSION FROM G-ALPHA-S TO G-ALPHA-I-COUPLED RECEPTOR CASCADES” (UNIVERSITÄT INNSBRUCK, priority 2011, published 2015).
One block for each compound: values may come before it. Where no end group is shown, it is not given here.

Columns and labels:
Assay type in all cases: cell-based
[1] = tested on: Erk1/2 phosphorylation in δOR-HEK293 cells; test: MAPK-phosphorylation assay (Erk1/2) in δOR-HEK293 cells; settings: for SNC80-induced Erk1/2 phosphorylation (amplitude and duration): pre-treatment before SNC80
Protocol: δOR-HEK293 cells were grown in 12 or 24 well plate formats (DMEM supplemented with 10% FBS). Either 24 or 48 hours after splitting or co-transfection in overexpression studies [transfected with constructs encoding the regulatory (RIIβ) or catalytic subunits (PKAc) of PKA] confluent cells were treated with inhibitors (KT5720 for 60 minutes, pertussis toxin for 16 hours), chemical modulators (forskolin, 6-MBC-cAMP, Sp-5,6-DCI-cBIMPS, Sp-8-PIP-cAMPs, 2-Cl-8-MA-cAMP [all for 15 minutes] or Rp-cAMP for 60 minutes) and/or the δOR ligand SNC80 (for either 3, 6, 10 or 15 minutes). cAMP analogs purchased from Biolog (6-MBC-cAMP, #M012; Sp-5,6-DCI-cBIMPS, #D014; Sp-8-PIP-cAMPs, #P005, 2-Cl-8-MA-cAMP, #C080; Rp-cAMP, #A002S) (see Bobrovskaya et al., Cell. Signal. 19, 1141-1149 (2007); Nguyen et al., Cell. Signal. 16, 1141-1151 (2004); Maronde et al., J. Pineal Res. 27, 170-182 (1999); Ogreid et al., Eur. J. Biochem. 181, 19-31 (1989); Poppe et al., Nat. Methods 5, 277-278 (2008)).
Following treatments at 37° C. for 3, 6, 10 or 15 minutes the reactions were stopped by direct addition of Laemmli sample buffer. Equal amounts of protein (lysates normalized to loading control proteins) were subjected to polyacrylamide gel electrophoresis followed by immunoblotting (IB). To analyze the phosphorylation of Erk1/2 we applied the Phospho-p44/42 MAP Kinase antibody (Cell Signaling Technology, #9101). Quantitative densitometry of immuno blot bands was performed using the program ImageQuant 5.2 (Molecular Dynamics).

PKA kinase activity = test: CREB phosphorylation monitoring of PKA kinase activity; settings: conditions used for the Erk1/2 experiments
Protocol: We also tested the impact of R:Gαi complex formation on the evolutionary conserved route of signal transmission from Gαi to MAPK9. […] Pre-treatment with forskolin potentiated the SNC80-induced Erk1/2 phosphorylation (FIG. 2c). […] To exclude the possibility that PKA kinase activity could account for this potentiation, we pre-treated cells with the PKA inhibitor KT5720 (unless noted otherwise, all subsequent experiments were carried out in the presence of this kinase activity inhibitor). We confirmed that KT5720 inhibits PKA kinase activity under the conditions used by monitoring CREB phosphorylation (activated independently of Gαi signalling).

[2] = target: T1, RIIβ-RlucF[1]:PKAc-RlucF[2] complex (Rattus norvegicus, UniProt P12369); test: Renilla luciferase PCA of PKA holoenzyme dissociation in HEK293T cells; settings: HEK293T cells stably expressing the PKA reporter
T1 construct: Renilla luciferase PCA fragment F[1]; expressed in transfected cells
T1 sequence (P12369 whole entry, the tested form may be a part, one chain of several): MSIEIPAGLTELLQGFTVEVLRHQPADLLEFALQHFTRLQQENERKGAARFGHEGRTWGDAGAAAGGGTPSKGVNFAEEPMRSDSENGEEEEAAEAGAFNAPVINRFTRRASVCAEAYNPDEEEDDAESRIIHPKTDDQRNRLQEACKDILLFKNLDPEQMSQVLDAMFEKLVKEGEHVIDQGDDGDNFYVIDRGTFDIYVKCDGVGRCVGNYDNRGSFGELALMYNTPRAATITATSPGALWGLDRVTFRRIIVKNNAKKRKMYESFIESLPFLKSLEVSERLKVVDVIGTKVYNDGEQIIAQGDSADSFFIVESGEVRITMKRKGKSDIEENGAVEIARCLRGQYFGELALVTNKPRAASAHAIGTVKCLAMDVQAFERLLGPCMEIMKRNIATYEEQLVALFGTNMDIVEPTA
Protocol: We have generated a stable HEK293T cell line coexpressing the PCA fusion proteins RIIβ-Rluc-F[1] and PKAc-RlucF[2], as previously described. All cells were grown in DMEM supplemented with 10% FBS. We treated confluent HEK293T cells (stably expressing the PKA reporter) grown in 24 well plate format with varying concentrations and combinations of cAMP analogs 6-MBC-cAMP and Sp-5,6-DCI-cBIMPS (15 min; Biolog, Germany). We pretreated confluent HEK293T cells (stably expressing the PKA reporter) grown in 24 well plate format with 250 μM of Rp-cAMP (60 minutes) or with 6-MBC-cAMP and Sp-5,6-DCI-cBIMPS (=RII selective, each 50 μM; 15 min). We pretreated confluent HEK293T cells (stably expressing the PKA reporter) grown in 24 well plate format for 30 minutes with TAT or Reggai fusion peptides (˜3 μM) followed by exposure to forskolin (100 μM; 15 min). Following treatment, growth medium was exchanged and cells were resuspended in 350 μl of PBS. 100 μl of cell suspensions were transferred to 96-well plates and subjected to bioluminescence analysis using the LMaxTMII384 luminometer (Molecular Devices). Rluc bioluminescence signals were integrated for 10 seconds following addition of the Rluc substrate benzyl-coelenterazine (5 μM; Nanolight). […]

trimeric Gαi:βγ complex = test: BRET assay of Gαi1:Gγ2 conformational rearrangement in δOR-HEK293 cells
Excerpt: δOR-HEK293 cells grown in DMEM supplemented with 10% FBS were transiently transfected with the following constructs: For measurements of the interactions of G protein subunits among each other and with the receptor we transfected Gαi1 with the Renilla luciferase (Rluc) inserted at amino acid position 91 and the UV-shifted GFP variant GFP10 (substitutions: P64L, S147P, and S202P) fused to the C-terminus of […] or the UV-shifted variant GFP2 (substitution: F64L) fused to the C-terminus of the δOR. In overexpression studies, we coexpressed regulatory (RIIβ) or catalytic subunits (PKAc) of PKA. […] Total fluorescence and bioluminescence were evaluated for each well using a FlexStation2 (Molecular Devices) and Mithras LB 940 (Berthold Technologies), respectively. uvGFP fluorescence was excited at 400 nm and read at 515 nm. Fluorescence values were corrected by subtracting the auto-fluorescence of cells not expressing uvGFP. BRET between Rluc and GFP2 or GFP10 was measured after the addition of 5 μM Rluc substrate DeepBlueC (bisdeoxy-coelenterazine, PerkinElmer, Lifescience). BRET signals were derived from the emission detected with the energy acceptor filter (515±15 nm; GFP2/10) divided by the emission detected with the energy donor filter (410±40 nm; Rluc/Rluc3). […]

R:Gαi3 complexes = test: cAMP agarose precipitation of R:Gαi3 complexes from COS7 cells; settings: forskolin pre-treatment 15 minutes, 2AHA-cAMP-coupled agarose beads
Protocol: HEK293, U2OS cells and total brains of mice were homogenized using a Potter S (B. Braun Biotech International) with 15 strikes (lysis buffer: 10 mM sodium phosphate pH 7.2, 150 mM NaCl, 0.05% Triton X100 supplemented with standard protease inhibitors). We clarified the lysate (13000 rpm, 15 min) and precipitated PKA regulatory subunit associated protein complexes with PKA selective 8-AHA-cAMP agarose and Rp-8-AHA-cAMP agarose resin (Biolog, […]) for two hours at 4° C. As negative control experiment we added excess of cAMP (5 mM) to the brain lysates to mask the cAMP binding sites in the R subunits for precipitation. Resin associated proteins were washed four times with lysis buffer and eluted with Laemmli sample buffer. Equal amounts of protein (lysates normalized to loading control proteins) were subjected to polyacrylamide gel electrophoresis followed by immunoblotting with indicated antibodies. We performed densitometric quantification of RIIβ, PKAc and Gαi3 (in each case normalized on the most abundant precipitated protein from the same immunoblot (n=3) to compare complex formation and fold enrichment between holoenzyme (precipitated with Rp-8-AHA-cAMP) and activated R complexes (precipitated with 8-AHA-cAMP).
We then tested whether pre-dissociating endogenous R/Reg and PKAc/Cat subunits would change the stoichiometry of R:Gαi3 or R:PDK1 complexes. […]

Gαs- to Gαi-cascades = test: Reggai peptide applied in living HEK293 cells: signal transmission from Gαs- to Gαi-cascades; settings: HEK293 cell line
Excerpt: The present inventors identified and successfully applied the Reggai peptide directly in the living cells, in particular cell culture, HEK293 cell line, and changed the original and conserved Reggai sequence in a model organism (budding yeast) to prevent signal transmission from Gαs- to Gαi-cascades. The Reggai peptide had no effect on sole activation of either cascade, just in the case of simultaneous activation of both types of receptors the Gαs triggered and PKA-mediated elevation of Gαi activities was abolished. In the mammalian system the present inventors used biochemical tools to measure changes of cAMP levels, G protein activities and MAPK activation downstream of Gαi-coupled receptors upon formation of the dynamic interaction between PKA and Gαi.

Compound: 6-MBC-cAMP
SNC80-induced Erk1/2 phosphorylation (amplitude and duration) [1]: potentiated

Compound: CNc1nc2c(N)nc(Cl)nc2n1C1O[C@@H]2COP(=O)([O-])O[C@H]2[C@H]1O.[Na+] (stereo partly drawn) [2-Cl-8-MA-cAMP]
SNC80-induced Erk1/2 phosphorylation (amplitude and duration) [1]: no effect

Compound: Nc1ncnc2c1nc(N1CCCCC1)n2[C@@H]1O[C@@H]2COP(=O)(O)O[C@H]2[C@H]1O [8-PIP-cAMP]
SNC80-induced Erk1/2 phosphorylation (amplitude and duration) [1]: no effect

PKA kinase activity (CREB phosphorylation) (PKA kinase activity): inhibits
Compound: CCCCCCOC(=O)[C@]1(O)C[C@@H]2O[C@@]1(C)n1c3ccccc3c3c4c(c5c6ccccc6n2c5c31)C(=O)NC4 [KT5720]

Compound: Nc1ncnc2c1ncn2[C@@H]1O[C@@H]2COP(O)(=S)O[C@H]2[C@H]1O (stereo partly drawn) [Rp-cAMP]
SNC80+RegII subunit activator and SNC80+forskolin mediated Erk1/2 phosphorylation ([1]; pre-treatment 250 μM, 60 minutes): decreased
PKA holoenzyme dissociation [2]: prevented

Compound: C=CCN1C[C@H](C)N([C@H](c2ccc(C(=O)N(CC)CC)cc2)c2cccc(OC)c2)C[C@H]1C [SNC80]
Erk1/2 phosphorylation ([1]; agonist alone): large but transient increase
BRET between Gαi1 and Gγ2 (trimeric Gαi:βγ complex; agonist alone): decrease

Compound: OC1C2OP(O)(=S)OCC2OC1n1cnc2cc(Cl)c(Cl)cc21 (stereo not drawn) [Sp-5,6-DCI-cBIMPS]
SNC80-induced Erk1/2 phosphorylation (amplitude and duration) [1]: potentiated

Compound: C=C[C@@]1(C)CC(=O)[C@]2(O)[C@@]3(C)[C@@H](O)CCC(C)(C)[C@@H]3[C@H](O)[C@H](OC(C)=O)[C@@]2(C)O1 [forskolin]
conformation of the trimeric G-protein complex (trimeric Gαi:βγ complex; treatment alone, without SNC80): no effect
fold enrichment of R:Gαi3 complexes (R:Gαi3 complexes): 3.8 (SD±0.99) fold

Compound: QGDSADSFFIVESGE (not fully specified; listed as Homo sapiens) [Reggai peptide, PKA RIIβ-derived 15 amino acid peptide; applied to cells as fusion with GST, TAT and Flag]
sole activation of either cascade (Gαs or Gαi) (Gαs- to Gαi-cascades; only one cascade activated): no effect
Gαs triggered and PKA-mediated elevation of Gαi activities (Gαs- to Gαi-cascades; simultaneous activation of both types of receptors): abolished
potentiation of SNC80-mediated Erk1/2 phosphorylation using RII/RegII subunit activators ([1]; fusion peptides ~3 μM, 30 minutes): prevented
PKA holoenzyme dissociation [2]: Neither Reggai nor TAT control peptide pre-treatment of HEK293T cells had any effect
